What was measured:
[1] = Toxicity (general statement); format: in vivo, dogs and cats; settings: at concentrations many times that of the actual amounts employed
Ctenocephalides felis [2] = experiment: 2% pressurized spray for control of fleas on dogs; format: in vivo
Experimental: An experiment was carried out on dogs obtained from a licensed laboratory animal dealer. These dogs were mixed breeds and of different size and sex. The dogs were individually housed in cages with absorbent paper placed under each in order to count dead fleas. A mixture containing 2% O,O,O',O'-tetramethyl O,O'-thiodi-p-phenylene phosphorothioate (active ingredient) and having the following formula was used as a pressurized spray: […]
Two tests were carried out, one with 22 dogs and the other with 21 dogs, each test using 5 control dogs. Each dog was treated with approximately 60 mg./kg. of O,O,O',O'-tetramethyl O,O'-thiodi-p-phenylene phosphorothioate using the formulation described above. Each dog was infested with 100 1-day old adult C. felis 72 hours prior to spray treatment and reinfested on a weekly basis for 7 weeks, beginning 7 days after treatment. The five control dogs were treated with a blank spray containing everything except the active ingredient. After treatment or each reinfestation, daily examinations of each dog were made up to 7 days or until no live fleas could be found. Once a live flea was found, the dog was considered still infested even though the flea population may have been low. The number of dead fleas recovered from papers under the cages are expressed as average dead on treated/average dead on control are summarized in Table XVII.

Dermacentor variabilis = experiment: Tick control on dogs fed medicated diet, Table V; format: in vivo; settings: for % Control of Adult Engorged Female Ticks D.V.: dogs
Experimental: (§1) Five groups of two mongrel dogs each were fed a daily dose of 0, 6.25, 25, 100 or 400 mg. O,O,O',O'-tetramethyl O,O'-thiodi-p-phenylene phosphorothioate/kg. body weight in Agway Big Red Dog Meal. Dogs eating less than 75% of the food were given a corrected dose by gelatin capsule to equal 100%. Medication began 1 day after infesting each dog with 100 adult Ctenocephalides felis and 2 days before infesting each dog with 10 Dermacentor variabiles and 10 Rhipicephalus sanguineus adults.

Rhipicephalus sanguineus = experiment: Tick control on dogs fed medicated diet, Table V; format: in vivo; settings: for % Control of Adult Engorged Female Ticks R.S.: dogs
Experimental: as §1

Ctenocephalides felis [3] = experiment: Flea control on dogs given oral doses (gelatin capsules), Table III; format: in vivo; set-up: key to Flea Control: 100% Control; PC: Partial Control; NC: No Control
Experimental: Five groups of two mongrel dogs each were dosed daily with 0, 0.78, 3.1, 12.5 or 50 mg. O,O,O',O'-tetramethyl O,O'-thiodi-p-phenylene phosphorothioate/kg. body weight in gelatin capsules for 10 days. Medication began three days after infestations with 100 adult Ctenocephalides felis. […] Purina High Protein Dog Meal was fed once daily for the duration of the experiment. Water was provided ad libitum. The following table summarizes the results of the test.

[4] = 400 mg/kg in feed, end of experiment (8 days)

For `COP(=S)(OC)Oc1ccc(Sc2ccc(OP(=S)(OC)OC)cc2)cc1` [O,O,O',O'-tetramethyl O,O'-thiodi-p-phenylene phosphorothioate], the toxicity [1] was “substantially non-toxic”, the “Percent of Dogs with Control” value (Ctenocephalides felis [2]; 60 mg/kg 2% pressurized spray, week 0) was 100% and the “Percent of Dogs with Control” value (Ctenocephalides felis [2]; 60 mg/kg 2% pressurized spray, week 1) was 100%. For the same molecule, the “Percent of Dogs with Control” value (Ctenocephalides felis [2]; 60 mg/kg 2% pressurized spray, week 2) was 100%, the “Percent of Dogs with Control” value (Ctenocephalides felis [2]; 60 mg/kg 2% pressurized spray, week 3) was 100% and the “Percent of Dogs with Control” value (Ctenocephalides felis [2]; 60 mg/kg 2% pressurized spray, week 4) was 97.6%. For the same molecule, the “Percent of Dogs with Control” value (Ctenocephalides felis [2]; 60 mg/kg 2% pressurized spray, week 5) was 95.2%, the “Percent of Dogs with Control” value (Ctenocephalides felis [2]; 60 mg/kg 2% pressurized spray, week 6) was 82.9% and the “Percent of Dogs with Control” value (Ctenocephalides felis [2]; 60 mg/kg 2% pressurized spray, week 7) was 58.5%. For the same molecule, the “Avg. Dead on Treated, Average on Two Tests” value (“Avg. Dead on Treated, Average” for short) (Ctenocephalides felis [2]; 60 mg/kg, week 0, control 2.0) was 36.3, the “Avg. Dead on Treated, Average” value (Ctenocephalides felis [2]; 60 mg/kg, week 1, control 5.6) was 41.4 and the “Avg. Dead on Treated, Average” value (Ctenocephalides felis [2]; 60 mg/kg, week 2, control 3.0) was 41.2. The “Avg. Dead on Treated, Average” value (Ctenocephalides felis [2]; 60 mg/kg, week 3, control 4.8) was 41.2, the “Avg. Dead on Treated, Average” value (Ctenocephalides felis [2]; 60 mg/kg, week 4, control 5.2) was 40.7 and the “Avg. Dead on Treated, Average” value (Ctenocephalides felis [2]; 60 mg/kg, week 5, control 5.6) was 36.0. For the same molecule, the “Avg. Dead on Treated, Average” value (Ctenocephalides felis [2]; 60 mg/kg, week 6, control 4.8) was 30.0, the “Avg. Dead on Treated, Average” value (Ctenocephalides felis [2]; 60 mg/kg, week 7, control 4.8) was 26.3 and the “Number of Dogs on Which Fleas were Controlled” value (from here on “Number of Dogs”) (Ctenocephalides felis [2]; Combination of Test 1 & 2, 60 mg/kg, week 0, of 43) was 43 dogs. The “Number of Dogs” value (Ctenocephalides felis [2]; Combination of Test 1 & 2, 60 mg/kg, week 1, of 43) was 43 dogs, the “Number of Dogs” value (Ctenocephalides felis [2]; Combination of Test 1 & 2, 60 mg/kg, week 2, of 43) was 43 dogs and the “Number of Dogs” value (Ctenocephalides felis [2]; Combination of Test 1 & 2, 60 mg/kg, week 3, of 42) was 42 dogs. The “Number of Dogs” value (Ctenocephalides felis [2]; Combination of Test 1 & 2, 60 mg/kg, week 4, of 42) was 41 dogs, the “Number of Dogs” value (Ctenocephalides felis [2]; Combination of Test 1 & 2, 60 mg/kg, week 5, of 42) was 40 dogs and the “Number of Dogs” value (Ctenocephalides felis [2]; Combination of Test 1 & 2, 60 mg/kg, week 6, of 41) was 34 dogs. The “Number of Dogs” value (Ctenocephalides felis [2]; Combination of Test 1 & 2, 60 mg/kg, week 7, of 41) was 24 dogs, the “Number of Dogs” value (Ctenocephalides felis [2]; Experiment 1, 60 mg/kg 2% pressurized spray, week 0, of 22) was 22 dogs and the “Number of Dogs” value (Ctenocephalides felis [2]; Experiment 1, 60 mg/kg 2% pressurized spray, week 1, of 22) was 22 dogs. The “Number of Dogs” value (Ctenocephalides felis [2]; Experiment 1, 60 mg/kg 2% pressurized spray, week 2, of 22) was 22 dogs, the “Number of Dogs” value (Ctenocephalides felis [2]; Experiment 1, 60 mg/kg 2% pressurized spray, week 3, of 22) was 22 dogs and the “Number of Dogs” value (Ctenocephalides felis [2]; Experiment 1, 60 mg/kg 2% pressurized spray, week 4, of 22) was 22 dogs. For the same molecule, the “Number of Dogs” value (Ctenocephalides felis [2]; Experiment 1, 60 mg/kg 2% pressurized spray, week 5, of 22) was 22 dogs, the “Number of Dogs” value (Ctenocephalides felis [2]; Experiment 1, 60 mg/kg 2% pressurized spray, week 6, of 22**) was 20 dogs and the “Number of Dogs” value (Ctenocephalides felis [2]; Experiment 1, 60 mg/kg 2% pressurized spray, week 7, of 21) was 12 dogs. The “Number of Dogs” value (Ctenocephalides felis [2]; Experiment 2, 60 mg/kg 2% pressurized spray, week 0, of 21) was 21 dogs, the “Number of Dogs” value (Ctenocephalides felis [2]; Experiment 2, 60 mg/kg 2% pressurized spray, week 1, of 21) was 21 dogs and the “Number of Dogs” value (Ctenocephalides felis [2]; Experiment 2, 60 mg/kg 2% pressurized spray, week 2, of 21) was 21 dogs. The “Number of Dogs” value (Ctenocephalides felis [2]; Experiment 2, 60 mg/kg 2% pressurized spray, week 3, of 20**) was 20 dogs, the “Number of Dogs” value (Ctenocephalides felis [2]; Experiment 2, 60 mg/kg 2% pressurized spray, week 4, of 20) was 19 dogs and the “Number of Dogs” value (Ctenocephalides felis [2]; Experiment 2, 60 mg/kg 2% pressurized spray, week 5, of 20) was 18 dogs. For the same molecule, the “Number of Dogs” value (Ctenocephalides felis [2]; Experiment 2, 60 mg/kg 2% pressurized spray, week 6, of 20) was 14 dogs, the “Number of Dogs” value (Ctenocephalides felis [2]; Experiment 2, 60 mg/kg 2% pressurized spray, week 7, of 20) was 12 dogs and the “Avg. Dead on Treated” value (Ctenocephalides felis [2]; Test 1, 60 mg/kg, week 0, control 38) was 34.6. The “Avg. Dead on Treated” value (Ctenocephalides felis [2]; Test 1, 60 mg/kg, week 1, control 10.4) was 38.2, the “Avg. Dead on Treated” value (Ctenocephalides felis [2]; Test 1, 60 mg/kg, week 2, control 3.4) was 42.1 and the “Avg. Dead on Treated” value (Ctenocephalides felis [2]; Test 1, 60 mg/kg, week 3, control 4.6) was 41.6. The “Avg. Dead on Treated” value (Ctenocephalides felis [2]; Test 1, 60 mg/kg, week 4, control 5.4) was 37.8, the “Avg. Dead on Treated” value (Ctenocephalides felis [2]; Test 1, 60 mg/kg, week 5, control 5.0) was 34.1 and the “Avg. Dead on Treated” value (Ctenocephalides felis [2]; Test 1, 60 mg/kg, week 6, control 6.2) was 34.1. The “Avg. Dead on Treated” value (Ctenocephalides felis [2]; Test 1, 60 mg/kg, week 7, control 6.6) was 30.8, the “Avg. Dead on Treated” value (Ctenocephalides felis [2]; Test 2, 60 mg/kg, week 0, control .2) was 38.0 and the “Avg. Dead on Treated” value (Ctenocephalides felis [2]; Test 2, 60 mg/kg, week 1, control .8) was 44.5. The “Avg. Dead on Treated” value (Ctenocephalides felis [2]; Test 2, 60 mg/kg, week 2, control 2.6) was 40.3, the “Avg. Dead on Treated” value (Ctenocephalides felis [2]; Test 2, 60 mg/kg, week 3, control 5.0) was 40.7 and the “Avg. Dead on Treated” value (Ctenocephalides felis [2]; Test 2, 60 mg/kg, week 4, control 5.0) was 43.6. For the same molecule, the “Avg. Dead on Treated” value (Ctenocephalides felis [2]; Test 2, 60 mg/kg, week 5, control 6.2) was 37.9, the “Avg. Dead on Treated” value (Ctenocephalides felis [2]; Test 2, 60 mg/kg, week 6, control 3.5) was 26.0 and the “Avg. Dead on Treated” value (Ctenocephalides felis [2]; Test 2, 60 mg/kg, week 7, control 3.0) was 21.8. The “effect against adult ticks” value (Dermacentor variabilis; 6.25 mg/kg in feed) was “ineffective”, the “effect against adult ticks” value (Dermacentor variabilis; 25 mg/kg in feed) was “ineffective” and the condition of ticks (Dermacentor variabilis; 100 mg/kg in feed, some ticks on one dog) was “discolored and stunted”. For the same molecule, the “condition of adult ticks in capsules” value (Dermacentor variabilis; [4]) was “either dead or moribund”, the “% Control of Adult Engorged Female Ticks D.V.” value (Dermacentor variabilis; 6.25 mg/kg in feed) was 0% and the “% Control of Adult Engorged Female Ticks D.V.” value (Dermacentor variabilis; 25 mg/kg in feed) was 10%. For the same molecule, the “% Control of Adult Engorged Female Ticks D.V.” value (Dermacentor variabilis; 100 mg/kg in feed) was 30%, the “% Control of Adult Engorged Female Ticks D.V.” value (Dermacentor variabilis; 400 mg/kg in feed) was 100% and the “effect against adult ticks” value (Rhipicephalus sanguineus; 6.25 mg/kg in feed) was “ineffective”. For the same molecule, the “effect against adult ticks” value (Rhipicephalus sanguineus; 25 mg/kg in feed) was “ineffective”, the condition of ticks (Rhipicephalus sanguineus; 100 mg/kg in feed) was “engorged and detached normally” and the “condition of two female ticks on the ear of one dog” value (Rhipicephalus sanguineus; 400 mg/kg in feed, end of experiment) was “appeared normal, though not completely engorged”. The “condition of adult ticks in capsules” value (Rhipicephalus sanguineus; [4]) was “either dead or moribund”, the “% Control of Adult Engorged Female Ticks R.S.” value (Rhipicephalus sanguineus; 6.25 mg/kg in feed) was 20% and the “% Control of Adult Engorged Female Ticks R.S.” value (Rhipicephalus sanguineus; 25 mg/kg in feed) was 0%. For the same molecule, the “% Control of Adult Engorged Female Ticks R.S.” value (Rhipicephalus sanguineus; 100 mg/kg in feed) was 50%, the “% Control of Adult Engorged Female Ticks R.S.” value (Rhipicephalus sanguineus; 400 mg/kg in feed) was 100% and the flea activity (Ctenocephalides felis [3]; oral 0.78 mg/kg) was “no flea activity was observed”. The “Flea Control” value (Ctenocephalides felis [3]; oral 3.1 mg/kg daily, day 0) was “NC”, the “Flea Control” value (Ctenocephalides felis [3]; oral 3.1 mg/kg daily, day 1) was “NC” and the “Flea Control” value (Ctenocephalides felis [3]; oral 3.1 mg/kg daily, day 2) was “NC”. For the same molecule, the “Flea Control” value (Ctenocephalides felis [3]; oral 3.1 mg/kg daily, day 3) was “PC”, the “Flea Control” value (Ctenocephalides felis [3]; oral 3.1 mg/kg daily, day 4) was “PC” and the “Flea Control” value (Ctenocephalides felis [3]; oral 3.1 mg/kg daily, day 7) was 100 (100% Control). The Flea Control (Ctenocephalides felis [3]; oral 3.1 mg/kg, both dogs, after 7 days) was “complete control”, the “Flea Control” value (Ctenocephalides felis [3]; oral 12.5 mg/kg daily, day 0) was “NC” and the “Flea Control” value (Ctenocephalides felis [3]; oral 12.5 mg/kg daily, day 2) was “PC”. The “Flea Control” value (Ctenocephalides felis [3]; oral 12.5 mg/kg daily, day 3) was “PC”, the “Flea Control” value (Ctenocephalides felis [3]; oral 12.5 mg/kg daily, day 4) was “PC” and the “Flea Control” value (Ctenocephalides felis [3]; oral 12.5 mg/kg daily, day 7) was 100 (100% Control). The Flea Control (Ctenocephalides felis [3]; oral 12.5 mg/kg, another dog, after 7 days) was “complete control”, the Flea Control (Ctenocephalides felis [3]; oral 12.5 mg/kg, one dog, after 24 hours) was “complete control” and the “Flea Control” value (Ctenocephalides felis [3]; oral 50 mg/kg daily, day 0) was “NC”. The “Flea Control” value (Ctenocephalides felis [3]; oral 50 mg/kg daily, day 1) was 100 (100% Control), the Flea Control (Ctenocephalides felis [3]; oral 50 mg/kg, after 24 hours) was “complete flea control” and the “Flea Control” value (Ctenocephalides felis [3]; oral .78 mg/kg daily, day 0) was “NC”. The “Flea Control” value (Ctenocephalides felis [3]; oral .78 mg/kg daily, day 1) was “NC”, the “Flea Control” value (Ctenocephalides felis [3]; oral .78 mg/kg daily, day 2) was “NC” and the “Flea Control” value (Ctenocephalides felis [3]; oral .78 mg/kg daily, day 3) was “NC”. The “Flea Control” value (Ctenocephalides felis [3]; oral .78 mg/kg daily, day 4) was “NC”, the “Flea Control” value (Ctenocephalides felis [3]; oral .78 mg/kg daily, day 7) was “NC” and the “Flea Control” value (Ctenocephalides felis [3]; oral .78 mg/kg daily, day 8) was “NC”.

— patent publication US3968207A, “Method of controlling fleas and ticks on cats and dogs” (priority 1975, dated 1976)
